These results are taken from US7138361B2, “Herbicidal heterocycles” (E. I. du Pont de Nemours and Company, priority 2000, dated 2006).

Common to all, as to type: in vivo
The subject of test [1] is barnyardgrass (Echinochloa crus-galli). As to the kind of experiment: Test C flooded paddy test. To be noted: for Barnyardgrass plant response rating: Flooded Paddy, scale 0 to 100, 0 no effect, 100 complete control; for Plant response rating, Barnyardgrass: scale 0 to 100 (0 no effect, 100 complete control). A digest of the protocol:
(§1)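 Ratings come from visual comparison with control plants after 12 to 14 days in the greenhouse. Each species was at the 2-leaf stage when the flooded paddy was treated. Scores run from 0, meaning no effect, to 100, meaning complete control.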

Test [2] relates to duck salad (Heteranthera limosa). As to the kind of experiment: Test C flooded paddy test. To be noted: for Ducksalad plant response rating: Flooded Paddy, scale 0 to 100, 0 no effect, 100 complete control; for Plant response rating, Ducksalad: scale 0 to 100 (0 no effect, 100 complete control). The gist of the method:
as §1

The next test has as its system rice (Oryza saliva). As to the kind of experiment: Test C flooded paddy test. To be noted: for Rice plant response rating: Flooded Paddy, scale 0 to 100, 0 no effect, 100 complete control; for Plant response rating, Rice: scale 0 to 100 (0 no effect, 100 complete control). The gist of the method:
as §1

In the next test the test system is Sunflower. As to the kind of experiment: Test C preemergence. To be noted: scale 0 to 100.
The mark [3] stands for this setting: flooded paddy test, Rate 62 g/ha.
The mark [4] stands for this setting: flooded paddy test, Rate 125 g/ha.
The mark [5] stands for this setting: flooded paddy test, Rate 62 g/ha, visually evaluated after 12 to 14 days, 0 = no effect, 100 = complete control.

Regarding `CCC(CC)c1ccn(C2CCN(c3cccc(OC)c3)C2=O)n1` (centres unmarked) [Compound 96], the “Barnyardgrass plant response rating” value in test [1] (Rate 250 g/ha) and in test [1] (Rate 500 g/ha) was 100 throughout. Further, the “Plant response rating, Barnyardgrass” value in test [1] (setting [3]) and in test [1] (setting [4]) was 80 throughout. Moreover, the “Ducksalad plant response rating” value in test [2] (Rate 250 g/ha) and in test [2] (Rate 500 g/ha) was 100 each time. Also, the “Plant response rating, Ducksalad” value turned out to be 80 in test [2] (setting [3]) and 90 in test [2] (setting [4]). The “Rice plant response rating” value came out at 50 with rice (Oryza saliva) (Rate 250 g/ha) and 60 with rice (Oryza saliva) (Rate 500 g/ha). The “Plant response rating, Rice” value with rice (Oryza saliva) (setting [3]) and in the test on rice (Oryza saliva) (setting [4]) was 0 throughout. In addition, the “Plant response rating, Sunflower” value with Sunflower (Rate 62 g/ha) amounted to 0.
Consider `CCCC(C)c1ccn(C2CCN(c3cccc(OC)c3)C2=O)n1` (centres unmarked) [Compound 99], for which the figures for the “Barnyardgrass plant response rating” value in test [1] (Rate 250 g/ha) and in test [1] (Rate 500 g/ha) were 20 and 60, respectively. Besides, the “Plant response rating, Barnyardgrass” value in test [1] (setting [3]) and in test [1] (setting [4]) was 0 each time. The “Ducksalad plant response rating” value in test [2] (Rate 250 g/ha) and in test [2] (Rate 500 g/ha) was 0 in each case. The “Plant response rating, Ducksalad” value in test [2] (setting [3]) and in test [2] (setting [4]) was 0 each time. The “Rice plant response rating” value with rice (Oryza saliva) (Rate 250 g/ha) came out at 50; in the test with rice (Oryza saliva) (Rate 500 g/ha), 80. For the same compound, the “Plant response rating, Rice” value was 0 in the test on rice (Oryza saliva) (setting [3]) and 50 in the test on rice (Oryza saliva) (setting [4]). The “Plant response rating, Sunflower” value with Sunflower (Rate 62 g/ha) is 0.
For `CCCC(C)c1ccn(C2CCN(c3cccc(C(F)(F)F)c3)C2=O)n1` (centres unmarked) [Compound 100], the “Barnyardgrass plant response rating” value was found to be 0 in test [1] (Rate 250 g/ha) and 60 in test [1] (Rate 500 g/ha). For the same compound, the “Plant response rating, Barnyardgrass” value in test [1] (setting [3]) and in test [1] (setting [4]) was 0 throughout. Also, the entries for the “Ducksalad plant response rating” value in test [2] (Rate 250 g/ha) and in test [2] (Rate 500 g/ha) were 0 and 40, respectively. For the same compound, the “Plant response rating, Ducksalad” value in test [2] (setting [3]) and in test [2] (setting [4]) was 0 in each case. The “Rice plant response rating” value with rice (Oryza saliva) (Rate 250 g/ha) is 50; in the test on rice (Oryza saliva) (Rate 500 g/ha) it was 80. The “Plant response rating, Rice” value with rice (Oryza saliva) (setting [3]) was 0; with rice (Oryza saliva) (setting [4]) it was 50. Also, in the test on Sunflower (Rate 62 g/ha), the “Plant response rating, Sunflower” value came to 0.
Consider `CC(C)(C)c1ccn(C2CCN(c3cccc([S+]([O-])C(F)(F)F)c3)C2=O)n1` (centres unmarked) [Compound 101], for which the “Barnyardgrass plant response rating” value worked out at 50 in test [1] (Rate 250 g/ha) and 90 in test [1] (Rate 500 g/ha). Also, the “Plant response rating, Barnyardgrass” value was 0 in test [1] (setting [3]) and 40 in test [1] (setting [4]). In addition, the “Ducksalad plant response rating” value in test [2] (Rate 250 g/ha) and in test [2] (Rate 500 g/ha) was 100 each time. Further, the “Plant response rating, Ducksalad” value was 0 in test [2] (setting [3]) and 90 in test [2] (setting [4]). In addition, the “Rice plant response rating” value in the test with rice (Oryza saliva) (Rate 250 g/ha) turned out to be 80; with rice (Oryza saliva) (Rate 500 g/ha) it was 90. Besides, the entries for the “Plant response rating, Rice” value in the test on rice (Oryza saliva) (setting [3]) and with rice (Oryza saliva) (setting [4]) were 0 and 80, respectively. The “Plant response rating, Sunflower” value in the test on Sunflower (Rate 31 g/ha) and in the test on Sunflower (Rate 62 g/ha) was 0 throughout.
Regarding `CC(C)c1cccc(N2CCC(n3ccc(C(C)(C)C)n3)C2=O)c1` (centres unmarked) [Compound 111], the “Barnyardgrass plant response rating” value was found to be 20 in test [1] (Rate 250 g/ha) and 30 in test [1] (Rate 500 g/ha). Besides, the “Plant response rating, Barnyardgrass” value in test [1] (setting [3]) and in test [1] (setting [4]) was 0 throughout. Further, the “Ducksalad plant response rating” value in test [2] (Rate 250 g/ha) and in test [2] (Rate 500 g/ha) was 0 in each case. Also, the “Plant response rating, Ducksalad” value in test [2] (setting [3]) and in test [2] (setting [4]) was 0 in each case. For the same compound, the “Rice plant response rating” value in the test with rice (Oryza saliva) (Rate 250 g/ha) and in the test on rice (Oryza saliva) (Rate 500 g/ha) was 0 each time. Moreover, the “Plant response rating, Rice” value with rice (Oryza saliva) (setting [3]) and in the test on rice (Oryza saliva) (setting [4]) was 0 in each case. In addition, in the test on Sunflower (Rate 62 g/ha), the “Plant response rating, Sunflower” value was 0.
Take `CC(C)OC(=O)c1cccc(N2CCC(n3ccc(C(C)(C)C)n3)C2=O)c1` (centres unmarked) [Compound 124]: the “Barnyardgrass plant response rating” value in test [1] (Rate 250 g/ha) and in test [1] (Rate 500 g/ha) was 0 throughout. In addition, the “Plant response rating, Barnyardgrass” value in test [1] (setting [3]) and in test [1] (setting [4]) was 0 in each case. The entries for the “Ducksalad plant response rating” value in test [2] (Rate 250 g/ha) and in test [2] (Rate 500 g/ha) were 40 and 80, respectively. Moreover, the entries for the “Plant response rating, Ducksalad” value in test [2] (setting [3]) and in test [2] (setting [4]) were 0 and 20, respectively. Further, the “Rice plant response rating” value with rice (Oryza saliva) (Rate 250 g/ha) and with rice (Oryza saliva) (Rate 500 g/ha) was 0 each time. The “Plant response rating, Rice” value with rice (Oryza saliva) (setting [3]) and with rice (Oryza saliva) (setting [4]) was 0 throughout. Further, the “Plant response rating, Sunflower” value with Sunflower (Rate 31 g/ha) and in the test with Sunflower (Rate 62 g/ha) was 0 each time.
For the compound `CCC(C)Oc1cccc(N2CCC(n3ccc(C(C)(C)C)n3)C2=O)c1` (centres unmarked) [Compound 127], the “Barnyardgrass plant response rating” value was 20 in test [1] (Rate 250 g/ha) and 50 in test [1] (Rate 500 g/ha). Besides, the “Plant response rating, Barnyardgrass” value in test [1] (setting [3]) and in test [1] (setting [4]) was 0 in each case. The figures for the “Ducksalad plant response rating” value in test [2] (Rate 250 g/ha) and in test [2] (Rate 500 g/ha) were 50 and 80, respectively. Besides, the “Plant response rating, Ducksalad” value in test [2] (setting [3]) and in test [2] (setting [4]) was 0 in each case. The “Rice plant response rating” value in the test with rice (Oryza saliva) (Rate 250 g/ha) and in the test with rice (Oryza saliva) (Rate 500 g/ha) was 0 throughout. Also, the “Plant response rating, Rice” value with rice (Oryza saliva) (setting [3]) and in the test on rice (Oryza saliva) (setting [4]) was 0 in each case. In addition, the “Plant response rating, Sunflower” value in the test on Sunflower (Rate 62 g/ha) worked out at 0.
For the compound `CCOc1cccc(N2CCC(n3ccc(C(C)C)n3)C2=O)c1` (centres unmarked) [Compound 128], the “Barnyardgrass plant response rating” value in test [1] (Rate 250 g/ha) and in test [1] (Rate 500 g/ha) was 100 in each case. In addition, the “Plant response rating, Barnyardgrass” value in test [1] (setting [3]) turned out to be 40; in test [1] (setting [4]), 100. Also, the “Ducksalad plant response rating” value in test [2] (Rate 250 g/ha) and in test [2] (Rate 500 g/ha) was 100 throughout. For the same compound, the “Plant response rating, Ducksalad” value in test [2] (setting [3]) was determined as 60; in test [2] (setting [4]), 70. Further, the results for the “Rice plant response rating” value in the test with rice (Oryza saliva) (Rate 250 g/ha) and with rice (Oryza saliva) (Rate 500 g/ha) were 30 and 70, respectively. In addition, the “Plant response rating, Rice” value in the test on rice (Oryza saliva) (setting [3]) was 0; in the test on rice (Oryza saliva) (setting [4]), 30. Moreover, the “Plant response rating, Sunflower” value in the test with Sunflower (Rate 62 g/ha) is listed as 20.
Take `CCCC(C)c1ccn(C2CCN(c3cccc(OCC)c3)C2=O)n1` (centres unmarked) [Compound 129]: the “Barnyardgrass plant response rating” value was 80 in test [1] (Rate 250 g/ha) and 100 in test [1] (Rate 500 g/ha). Moreover, in test [1] (setting [4]), the “Plant response rating, Barnyardgrass” value was determined as 50. In addition, the “Plant response rating (scale 0 to 100), Barnyardgrass” value in test [1] (setting [5]) was determined as 30. In addition, the “Ducksalad plant response rating” value in test [2] (Rate 250 g/ha) and in test [2] (Rate 500 g/ha) was 90 in each case. Further, the “Plant response rating, Ducksalad” value in test [2] (setting [4]) is listed as 30. The “Plant response rating (scale 0 to 100), Ducksalad” value in test [2] (setting [5]) worked out at 20. For the same compound, the entries for the “Rice plant response rating” value in the test on rice (Oryza saliva) (Rate 250 g/ha) and in the test on rice (Oryza saliva) (Rate 500 g/ha) were 0 and 35, respectively. Also, the “Plant response rating, Rice” value in the test on rice (Oryza saliva) (setting [4]) came out at 0. Moreover, in the test with rice (Oryza saliva) (setting [5]), the “Plant response rating (scale 0 to 100), Rice” value was determined as 0. The “Plant response rating, Sunflower” value with Sunflower (Rate 62 g/ha) is listed as 0.
